The source of these data is patent EP1076558B1, “2-PHENYL-1-[-(2-AMINOETHOXY)-BENZYL -INDOLE IN COMBINATION WITH ESTROGENS” (Wyeth, priority 1998, dated 1999).

As a reminder, the IC50 is the concentration needed to halve the response being measured.

Structures can show the parent of a compound that is named as a salt.

The first test concerns the target T1, estrogen receptor (Homo sapiens, UniProt P03372).
T1 construct: expressed in transfected cells; host or cells: CHO cells (ribosome-free cytosol)
T1 sequence (P03372 1-595): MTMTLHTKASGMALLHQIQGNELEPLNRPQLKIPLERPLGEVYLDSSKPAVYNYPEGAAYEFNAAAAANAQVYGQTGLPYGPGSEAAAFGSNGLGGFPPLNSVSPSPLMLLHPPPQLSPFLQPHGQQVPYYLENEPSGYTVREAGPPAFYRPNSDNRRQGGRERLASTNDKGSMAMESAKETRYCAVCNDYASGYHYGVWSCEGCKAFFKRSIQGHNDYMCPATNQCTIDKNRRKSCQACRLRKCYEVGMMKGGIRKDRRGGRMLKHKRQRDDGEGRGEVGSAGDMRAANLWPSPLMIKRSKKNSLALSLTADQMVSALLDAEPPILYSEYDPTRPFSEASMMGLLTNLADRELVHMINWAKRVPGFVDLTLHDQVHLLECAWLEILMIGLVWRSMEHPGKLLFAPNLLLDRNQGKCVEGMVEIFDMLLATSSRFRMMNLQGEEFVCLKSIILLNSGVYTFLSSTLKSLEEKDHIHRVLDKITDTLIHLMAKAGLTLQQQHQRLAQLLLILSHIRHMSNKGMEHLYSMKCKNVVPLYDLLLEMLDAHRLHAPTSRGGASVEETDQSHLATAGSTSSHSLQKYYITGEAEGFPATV
Description: In vitro estrogen receptor binding assay.
Details: not given
The procedure: CHO cells overexpressing the estrogen receptor were grown in 150 mm^2 dishes in DMEM + 10% dextran coated charcoal, stripped fetal bovine serum. The plates were washed twice with PBS and once with 10mM Tris-HCl, pH 7.4, 1mM EDTA. Cells were harvested by scraping the surface and then the cell suspension was placed on ice. Cells were disrupted with a hand-held motorized tissue grinder using two, 10-second bursts. […] The cytosol was then frozen and stored at -80°C. Protein concentration of the cytosol was estimated using the BCA assay with reference standard protein.
100uG/100uL of the receptor preparation was aliquoted per well. […] The plate was incubated at room temperature for 2.5 h. […] 200 uL of the supernatant solution was then removed for scintillation counting. Samples were counted to 2% or 10 minutes, whichever occurs first. […] Also, wells containing radioactivity but no cytosol were processed with charcoal to estimate unremovable DPM of [^3H]
Counts per minute (CPM) of radioactivity were automatically converted to disintegrated per minute (DPM) by the Beckman LS 7500 Scintillation Counter using a set of quenched standards to generate a H No. for each sample.
For the generation of IC50 curves, % binding is plotted vs compound. […] For a description of these methods, see Hulme, E.C., ed. […] Receptor-Ligand Interactions: A Practical Approach. IRL Press, New York.(see especially chapter 8).
As for `Cc1c(-c2ccc(O)cc2)n(Cc2ccc(OCCN(C(C)C)C(C)C)cc2)c2ccc(O)cc12` [Example No. 104, 1-[4-(2-Diisopropylamino-ethoxy)-benzyl]-2-(4-hydroxy-phenyl)-3-methyl-1H-indol-5-ol], the IC50 amounted to 100 nM.

The test is the same for the next values; noted with them: competition with [3H]17β-estradiol; cytosol of CHO cells overexpressing the estrogen receptor; read-out: Receptor Binding IC50's.
For the compound `CCCCN(C)CCOc1ccc(Cn2c(-c3ccc(O)cc3)c(C)c3cc(O)ccc32)cc1` [Example No. 105], the IC50 was 28 nM.
On the same count and under the same terms, as for `Cc1c(-c2ccc(O)cc2)n(Cc2ccc(OCC[N+](C)(C)C)cc2)c2ccc(O)cc12` [Example No. 106, 2-(4-Hydroxy-phenyl)-3-methyl-1-[4-(2-dimethyl-1-yl-ethoxy)-benzyl]-1H-indol-5-ol methiodide], the figure is 100 nM.

Still in this test, the particulars now being: read-out: Receptor Binding IC50's.
For the compound `Cc1c(-c2ccc(F)cc2)n(Cc2ccc(OCCN3CCCCC3)cc2)c2ccc(O)cc12` [Example No. 116, 2-(4-Fluoro-phenyl)-3-methyl-1-[4-(2-piperidine-1-yl-ethoxy)-benzyl]-1H-indol-5-ol], the IC50 was determined as 40 nM.
The same measure, in the same setting: as for `Cc1c(-c2ccc(O)cc2)n(Cc2ccc(OCCN3CC4(C)CC3CC(C)(C)C4)cc2)c2ccc(O)cc12` (centres unmarked) [Example No. 115, 2-(4-Hydroxy-phenyl)-3-methyl-1-{4-[2-(1,3,3-trimethyl-6-aza-bicyclo[3.2.1]oct-6-yl)-ethoxy]-benzyl}-1H-indol-5-ol], the figure is 150 nM.
With `CCCCN(CCCC)CCOc1ccc(Cn2c(-c3ccc(O)cc3)c(C)c3cc(O)ccc32)cc1` [Example No. 103, 1-[4-(2-Dibutylamino-ethoxy)-benzyl]-2-(4-hydroxy-phenyl)-3-methyl-1H-indol-5-ol], the IC50 came to 200 nM.
In the case of `Cc1c(-c2ccc(F)cc2)n(Cc2ccc(OCCN3CCCCCC3)cc2)c2ccc(O)cc12` [Example No. 117, 1-[4-(2-Azepan-1-yl-ethoxy)-benzyl]-2-(4-fluoro-phenyl)-3-methyl-1H-indol-5-ol], the IC50 stood at 100 nM.
Regarding `Cc1c(-c2ccc(O)cc2)n(Cc2ccc(OCCN3CCCC(C)(C)C3)cc2)c2ccc(O)cc12` [Example No. 111, 1-{4-[2-(3,3-Dimethyl-piperidin-1-yl)-ethoxy]-benzyl}-2-(4-hydroxy-phenyl)-3-methyl-1H-indol-5-ol], the IC50 stood at 150 nM.
Turning to `Cc1c(-c2ccc(O)cc2)n(Cc2ccc(OCCN3CCCCC3)cc2)c2ccc(F)cc12` [Example No. 94, 4-{5-Fluoro-3-methvl-1-[4-(2-piperidin-1-yl-ethoxy)-benzyl]-1H-indol-2-yl}-phenol], the IC50 was found to be 200 nM.
As for `Cc1c(-c2ccccc2)n(Cc2ccc(OCCN3CCCCC3)cc2)c2ccc(O)cc12` [Example No. 87, 3-Methyl-2-phenyl-1-[4-(2-piperidine-1-yl-ethoxy)-benzyl]-1H-indol-5-ol], the IC50 stood at 30 nM.
Still for that read-out and setting: the figure for `Cc1c(-c2ccc(O)cc2)n(Cc2ccc(OCCN3CCC(O)CC3)cc2)c2ccc(O)cc12` [Example No. 113, 2-(4-Hydroxy-phenyl)-1-{4-[2-(4-hydroxy-piperidin-1-yl)-ethoxy]-benzyl}-3-methyl-1H-indol-5-ol] is 47 nM; for `Cc1c(-c2ccc(O)cc2)n(Cc2ccc(OCCN3CCC(C)CC3)cc2)c2ccc(O)cc12` [Example No. 110, 2-(4-Hydroxy-phenyl)-3-methyl-1-{4-[2-(4-methyl-piperidin-1-yl)-ethoxy]-benzyl}-1H-indol-5-ol] it is 37 nM.
Consider `CCOc1ccc(-c2c(C)c3cc(O)ccc3n2Cc2ccc(OCCN3CCCCCC3)cc2)cc1` [Example No. 93, 1-[4-(2-Azepan-1-yl-ethoxy)-benzyl]-2-(4-ethoxy-phenyl)-3-methyl-1H-indol-5-ol], for which the IC50 was found to be 90 nM.
The same measure, in the same setting: the figure for `Cc1c(-c2ccc3c(c2)OCO3)n(Cc2ccc(OCCN3CCCCC3)cc2)c2ccc(O)cc12` [Example No. 119, 2-Benzo[1,3]dioxol-5-yl-3-methyl-1-[4-(2-piperidin-1-yl-ethoxy)-benzyl]-1H-indol-5-ol] is 70 nM; for `COc1ccc(-c2c(C)c3cc(OC)ccc3n2Cc2ccc(OCCN3CCCCC3)cc2)cc1` [Example No. 90, 5-Methoxy-2-(4-methoxy-phenyl)-3-methyl-1-{4-(2-piperidin-1-yl-ethoxy)-benzyl]-1H-indole] it is 600 nM; for `Cc1c(-c2ccc(O)cc2)n(Cc2ccc(OCCN3CCCCC3)cc2)c2ccccc12` [Example No. 86, 4-{3-Methyl-1-[4-(2-piperidin-1-yl-ethoxy)-benzyl]-1H-indol-2-yl}-phenol hydrochloride] it is 120 nM.
Turning to `CCOc1ccc(-c2c(C)c3cc(O)ccc3n2Cc2ccc(OCCN3CCCCC3)cc2)cc1` [Example No. 92, 2-(4-Ethoxv-phenyl)-3-methyl-1-[4-(2-piperidin-1-yl-ethoxy)-benzyl]-1H-indol-5-ol], the IC50 was found to be 62 nM.
`COc1ccc(-c2c(C)c3cc(O)ccc3n2Cc2ccc(OCCN3CCCCC3)cc2)cc1` [Example No. 89, 2-(4-methoxy-phenyl)-3-methyl-1-{4-[2-(piperidin-1-yl)-ethoxy]-benzyl}-1H-indol-5-ol]: the IC50 was 300 nM.
Same read-out and setting: as for `Cc1c(-c2ccccc2)n(Cc2ccc(OCCN3CCCCC3)cc2)c2ccccc12` [Example No. 85, 4-{3-Methyl-1-[4-(2-piperidin-1-yl-ethoxy)-benzyl]-1H-indole}], the figure is 450 nM; as for `Cc1c(-c2ccc(O)cc2)n(Cc2ccc(OCCN3C[C@@H]4CC[C@H]3C4)cc2)c2ccc(O)cc12` [Example No. 114, (1S,4R)-1-{4-[2-(2-Aza-bicyclo [2.2.1]hept-2-yl)-ethoxy]-benzyl}-2-(4-hydroxy-phenyl)-3-methyl-1H-indol-5-ol], 1 nM; as for `Cc1c(-c2ccc(O)cc2)n(Cc2ccc(OCCN3CCCCC3C)cc2)c2ccc(O)cc12` (centres unmarked) [Example No. 108, 2-(4-Hydroxy-phenyl)-3-methyl-1-{4-[2-(2-methyl-piperidin-1-yl)-ethoxy]-benzyl}-1H-indol-5-ol], 20 nM.
The same measure, in the same setting: the figure for `CCCN(CCC)CCOc1ccc(Cn2c(-c3ccc(O)cc3)c(C)c3cc(O)ccc32)cc1` [Example No. 102, 1-[4-(2-Dipropylamino-ethoxy)-benzyl]-2-(4-hydroxy-phenyl)-3-methyl-1H-indol-5-ol] is 80 nM; for `COc1ccc2c(c1)c(C)c(-c1ccc(O)cc1)n2Cc1ccc(OCCN2CCCCC2)cc1` [Example No. 88, 4-{5-Methoxy-3-methyl-1-{4-[2-(piperidin-1-yl)-ethoxy]-benzyl}-1H-indol-2-yl}-phenol] it is 350 nM.

A further test has as its system Ishikawa cells. Description: Ishikawa Cell Alkaline Phosphatase Assay. The test is classed as cell-based, human. The following applies: Homo sapiens, Ishikawa; estrogenic activity by the alkaline phosphatase method; reference standards; read-out: ED50 values (95% C.I.). The method, then: Cells were treated for 48 h prior to assay. […] Sample population for at each dose was n=8. […] Plates are placed at -80°C for a minimum of 15 minutes. Plates are thawed at 37°C followed by the addition of 150μL of 0.1 M Tris-HCl, pH 9.8, containing 4 mM para-nitrophenylphosphate (pNPP) to each well (final concentration. 3 mM pNPP). Absorbance and slope calculations were made using the […] Application program (Bio-Tek Instruments, Inc., Winooski, VT). […] Various compounds were assayed for estrogenic activity by the alkaline phosphatase method and corresponding ED50 values (95% C.I.) were calculated. The four listed in the following were used as as reference standards: A description of these methods is described by Holinka, […]., Kuramoto, H. and Gurpide, E. (1986) Effects of steroid hormones and antisteroids on alkaline phosphatase activity in human endometrial cancer cells (Ishikawa Line). Cancer Research, 46:2771-2774, and by […]. and […] simple and sensitive microtiter plate estrogen bioassay based on stimulation alkaline phosphatase in Ishikawa cells; […] Endocrinology, 6:2757-2762.
Turning to `C[C@]12CC[C@@H]3c4ccc(O)cc4CC[C@H]3[C@@H]1C[C@@H](O)[C@@H]2O` [estriol], the EC50 was determined as 0.13 nM.
On the same count and under the same terms, the figure for `C[C@]12CC[C@@H]3c4ccc(O)cc4CC[C@H]3[C@@H]1CCC2=O` [estrone] is 0.36 nM.

Still in this test, the particulars now being: estrogenic activity by the alkaline phosphatase method; reference standards; read-out: ED50 values (95% C.I.).
Consider `C[C@]12CC[C@@H]3c4ccc(O)cc4CC[C@H]3[C@@H]1CC[C@H]2O` [17α-estradiol], for which the EC50 came to 1.42 nM.
